Patent US11879893B2, “Rapid detection test for SARS-CoV-2” (priority 2020, dated 2024)
Read-outs that look alike come from different tables or passages of the source. Marks after values point to notes of the source that are not given here. Square brackets hold non-standard residues; d marks the D form. Primed or numbered codes have the meaning given here. Peptide text beside a SMILES is read from it. * marks the point of attachment. Dabcyl′ = CN(C)c1ccc(/N=N/c2ccc(C(=O)*)cc2)cc1; Dabcyl = CN(C)c1ccc(N=Nc2ccc(C(=O)*)cc2)cc1; EDANS = O=S(=O)(O)c1cccc2c(NCCN*)cccc12; Sta = CC(C)C[C@H](N)[C@@H](O)CC(=O)O; Isovaleryl = CC(C)CC(=O)*

What was measured:
[1] = test system: non-specific protease activity in saliva; experiment: Inhibitor test in saliva samples: non-specific protease activity; format: biochemical
Procedure: (§1) The purpose of adding protease inhibitors to the buffer is to reduce nonspecific saliva activity and increase signal to noise ratio. 29 inhibitors were tested using a competitive enzymatic activity assay of 3CL Protease in saliva samples.

3CL Protease [2] = target: T1, 3CL Protease (Severe acute respiratory syndrome coronavirus 2, UniProt P0DTC1); format: biochemical, SARS-CoV-2; conditions: saliva samples
T1 construct: 6xHIS-tag (N); TEV-protease cleavage site (ENLYFQG) (N); made in house
Procedure: as §1

3CL Protease [3] = target: T1, 3CL Protease; format: biochemical, SARS-CoV-2
Procedure: (§2) 29 inhibitors were tested using a competitive enzymatic activity assay of 3CL protease in buccal samples.

[4] = test system: Buccal sample non-specific protease activity; experiment: Inhibitor test in buccal samples: non-specific protease activity; format: biochemical
Procedure: Optimizing Inhibitor Cocktail to Maximize Buccal Sample Non-Specific Protease Activity Inhibition
as §2

HRV 3C protease = experiment: Substrate cleavage by HRV 3C protease; format: biochemical, Human Rhinovirus (HRV); conditions: for % Enz activity, HRV: Table 5: relative to the substrate's own protease = 100
Procedure: (§3) Running condition: Substrate concentration-5 uM, enzyme concentration 150 ng/reaction.
(§4) Enzymatic activity (RFU/min) of SARS-CoV-2, HCoV-229E and HRV 3CL and 3C proteases using peptide (SEQ ID NO: 8) is summarized in Table 6. Substrate concentration-1 μM, enzyme concentration 150 ng/reaction.

HCoV-229E 3CL protease = target: T2, HCoV-229E 3CL protease (Human coronavirus 229E, UniProt P0C6U2); experiment: Substrate cleavage by HCoV-229E 3CL protease; format: biochemical; conditions: for Enzymatic activity, Slope, HCoV-229E / cross reactivity SARS-CoV-2 versus HCoV-229E protease: enzyme 150 ng/reaction; for % Enz activity, HCoV-229E: Table 5: relative to the substrate's own protease = 100; for cross reactivity SARS-CoV-2 versus HCoV-229E protease: substrate 5 uM
T2 construct: 6xHIS-tag (N); TEV-protease cleavage site (ENLYFQG) (N); made in house; host or cells: Rosetta BL21 E. coli, pET14b
Procedure: as §3, §4

SARS-CoV-2 3CL Pro = SARS-CoV-2 3CL Pro (Severe acute respiratory syndrome coronavirus 2, UniProt P0DTC1); conditions: for Enzymatic activity, Slope, SARS-CoV-2: enzyme 150 ng/reaction; for % Enz activity, SARS-CoV-2: Table 5: relative to the substrate's own protease = 100
Saliva = experiment: Substrate cleavage by saliva (nonspecific activity); format: biochemical
Procedure: For these enzymatic reactions 150 ng/well enzyme was used under final and optimized assay conditions, i.e. […] Experiment were tested with 3 different saliva samples; representative results are shown.

3CL = target: T3, 3CL (Severe acute respiratory syndrome coronavirus 2, UniProt P0DTC1); format: biochemical, SARS-CoV-2
T3 construct: 6xHIS-tag (N); TEV-protease cleavage site (ENLYFQG) (N); made in house; host or cells: Rosetta BL21 E. coli, pET14b
Procedure: In order to find the final and optimal reaction conditions, several parameters were tested:
Reducing agent: DTT and TCEP were tested at various concentrations to see if enzyme activity was affected.

[5] = Table 4: substrate 5 uM, enzyme 150 ng/reaction
[6] = Table 2: 150 ng/well enzyme, 5 μM substrate, Dabcyl/EDANS, final buffer
[7] = Table 2: 5 μM substrate, Dabcyl/EDANS, final buffer
[8] = Table 3: 1 uM substrate, 488/535 nm, gain 1400, buffer without BSA

## AC-DEVD-CHO
[1]
  non-specific protease activity in saliva: decreased
3CL Protease [2]
  inhibition of 3CL specific activity: non significant inhibition

## O=S(=O)(F)Cc1ccccc1 [PMSF]
[1]
  non-specific protease activity in saliva: decreased
3CL Protease [3]; buccal samples
  inhibition of 3CL specific activity: non significant inhibition
[4]
  non-specific protease activity: decreased
  ranking among 29 inhibitors tested: four best inhibitors
3CL Protease [2]
  inhibition of 3CL specific activity: non significant inhibition

## Dabcyl-YGSTLQAGLRK-EDANS ({Dabcyl′}-YGSTLQAGLRK-{EDANS}; SMILES CC(C)C[C@H](NC(=O)CNC(=O)[C@H](C)NC(=O)[C@H](CCC(N)=O)NC(=O)[C@H](CC(C)C)NC(=O)[C@@H](NC(=O)[C@H](CO)NC(=O)CNC(=O)[C@H](Cc1ccc(O)cc1)NC(=O)c1ccc(/N=N/c2ccc(N(C)C)cc2)cc1)[C@@H](C)O)C(=O)N[C@@H](CCCNC(=N)N)C(=O)N[C@@H](CCCCN)C(=O)NCCNc1cccc2c(S(=O)(=O)O)cccc12) [Biosyn#6]
HRV 3C protease; [5]
  Enzymatic activity, Slope, HRV: 44 RFU/min
HRV 3C protease
  % Enz activity, HRV: −7* %
HCoV-229E 3CL protease; Table 4: substrate 5 uM
  Enzymatic activity, Slope, HCoV-229E: 213 RFU/min
HCoV-229E 3CL protease
  % Enz activity, HCoV-229E: 100%
  cross reactivity SARS-CoV-2 versus HCoV-229E protease: greater activity towards SARS-CoV-2 than HCoV-229E protease
SARS-CoV-2 3CL Pro; Table 4: substrate 5 uM
  Enzymatic activity, Slope, SARS-CoV-2: 349 RFU/min
SARS-CoV-2 3CL Pro
  % Enz activity, SARS-CoV-2: 190%

## Dabcyl-TSAVLQSGF-EDANS ({Dabcyl′}-TSAVLQSGF-{EDANS}; SMILES CC(C)C[C@H](NC(=O)[C@@H](NC(=O)[C@H](C)NC(=O)[C@H](CO)NC(=O)[C@@H](NC(=O)c1ccc(/N=N/c2ccc(N(C)C)cc2)cc1)[C@@H](C)O)C(C)C)C(=O)N[C@@H](CCC(N)=O)C(=O)N[C@@H](CO)C(=O)NCC(=O)N[C@@H](Cc1ccccc1)C(=O)NCCNc1cccc2c(S(=O)(=O)O)cccc12) [Substrate#2]
SARS-CoV-2 3CL Pro; [6]
  Enzyme: 449 +/− 36
Saliva; [7]
  Saliva: 187 +/− 7

## Dabcyl-TSAVLQSGFRK-EDANS [Biosyn #1]
HRV 3C protease; [5]
  Enzymatic activity, Slope, HRV: −12 RFU/min
HRV 3C protease
  % Enz activity, HRV: −1* %
HCoV-229E 3CL protease; Table 4: substrate 5 uM
  Enzymatic activity, Slope, HCoV-229E: 856 RFU/min
HCoV-229E 3CL protease
  % Enz activity, HCoV-229E: 95%
  cross reactivity SARS-CoV-2 versus HCoV-229E protease: Cross reactivity was detected
Saliva; [7]
  Saliva: 1123 +/− 35

## [BHQ-1]-AVLQSGF-[Cys(AF488)]-RK-amide ({BHQ‑1}-AVLQSGFC(AF488)RK-NH2) [CBR #3]
SARS-CoV-2 3CL Pro; [8]
  Enzyme: 461 +/− 18
Saliva; [8]
  Saliva: 154 +/− 6

## [BHQ-1]-TSAVLQSGF-[Cys(AF488)]-RK-amide ({BHQ‑1}-TSAVLQSGFC(AF488)RK-NH2; also: places amidation at residue 10) [CBR #2]
HRV 3C protease; Table 6: substrate 1 μM, enzyme 150 ng/reaction
  Enzymatic activity, Slope, HRV: 9 RFU/min
HCoV-229E 3CL protease; Table 6: substrate 1 μM
  Enzymatic activity, Slope, HCoV-229E: 1116 RFU/min
SARS-CoV-2 3CL Pro; [8]
  Enzyme: 6425 +/− 41
SARS-CoV-2 3CL Pro; Table 6: substrate 1 μM
  Enzymatic activity, Slope, SARS-CoV-2: 3536 RFU/min
SARS-CoV-2 3CL Pro; enzyme versus saliva, Table 3 conditions
  signal to noise: 12.5
Saliva; [8]
  Saliva: 512 +/− 16

## Dabcyl-LEALFQGP[Asp-(EDANS) SQ [Amide] ({Dabcyl′}-LEALFQGPD(EDANS)SQ-NH2; SMILES CC(C)C[C@H](NC(=O)c1ccc(/N=N/c2ccc(N(C)C)cc2)cc1)C(=O)N[C@@H](CCC(=O)O)C(=O)N[C@@H](C)C(=O)N[C@@H](CC(C)C)C(=O)N[C@@H](Cc1ccccc1)C(=O)N[C@@H](CCC(N)=O)C(=O)NCC(=O)N1CCC[C@H]1C(=O)N[C@@H](CC(=O)NCCNc1cccc2c(S(=O)(=O)O)cccc12)C(=O)N[C@@H](CO)C(=O)N[C@@H](CCC(N)=O)C(N)=O) [Biosyn#7]
HRV 3C protease; [5]
  Enzymatic activity, Slope, HRV: 1041 RFU/min
HRV 3C protease
  % Enz activity, HRV: 100%
HRV 3C protease; substrate 5 uM, enzyme 150 ng/reaction
  specificity for HRV: specific for HRV
HCoV-229E 3CL protease; Table 4: substrate 5 uM
  Enzymatic activity, Slope, HCoV-229E: 45 RFU/min
HCoV-229E 3CL protease
  % Enz activity, HCoV-229E: 0%
SARS-CoV-2 3CL Pro; Table 4: substrate 5 uM
  Enzymatic activity, Slope, SARS-CoV-2: 43 RFU/min
SARS-CoV-2 3CL Pro
  % Enz activity, SARS-CoV-2: 0%

## [BHQ-1]-TSAVLQSGFRK-[Cys(AF488)]-amide [CBR #1]
Saliva; [8]
  Saliva: 1356 +/− 37

## CC(C)CC(=O)N[C@H](C(=O)N[C@H](C(=O)N[C@@H](CC(C)C)[C@@H](O)CC(=O)N[C@@H](C)C(=O)N[C@@H](CC(C)C)[C@@H](O)CC(=O)O)C(C)C)C(C)C [pepstatin] (Isovaleryl-VV[Sta]A[Sta]-OH)
3CL Protease [3]
  inhibition of 3CL specific activity: non significant inhibition
[4]
  non-specific protease activity: decreased

## [Cl-].[Na+] [NaCl]
3CL
  effect of potential enzyme mediator on enzyme activity: No positive effect

## Dabcyl-AVLQSGFRK-EDANS ({Dabcyl′}-AVLQSGFRK-{EDANS}; SMILES CC(C)C[C@H](NC(=O)[C@@H](NC(=O)[C@H](C)NC(=O)c1ccc(/N=N/c2ccc(N(C)C)cc2)cc1)C(C)C)C(=O)N[C@@H](CCC(N)=O)C(=O)N[C@@H](CO)C(=O)NCC(=O)N[C@@H](Cc1ccccc1)C(=O)N[C@@H](CCCNC(=N)N)C(=O)N[C@@H](CCCCN)C(=O)NCCNc1cccc2c(S(=O)(=O)O)cccc12) [Substrate#4]
SARS-CoV-2 3CL Pro; [6]
  Enzyme: 1077 +/− 35
Saliva; [7]
  Saliva: 1515 +/− 40

## Dabcyl-TSAVLQSGFYK-EDANS ({Dabcyl′}-TSAVLQSGFYK-{EDANS}; SMILES CC(C)C[C@H](NC(=O)[C@@H](NC(=O)[C@H](C)NC(=O)[C@H](CO)NC(=O)[C@@H](NC(=O)c1ccc(/N=N/c2ccc(N(C)C)cc2)cc1)[C@@H](C)O)C(C)C)C(=O)N[C@@H](CCC(N)=O)C(=O)N[C@@H](CO)C(=O)NCC(=O)N[C@@H](Cc1ccccc1)C(=O)N[C@@H](Cc1ccc(O)cc1)C(=O)N[C@@H](CCCCN)C(=O)NCCNc1cccc2c(S(=O)(=O)O)cccc12) [Substrate#5]
SARS-CoV-2 3CL Pro; [6]
  Enzyme: 527 +/− 7
Saliva; [7]
  Saliva: 4688 +/− 53

## Dabcyl-KTSAVLQSGFRKME-EDANS [Commercial substrate, reference compound]
HRV 3C protease; [5]
  Enzymatic activity, Slope, HRV: 87 RFU/min
HRV 3C protease
  % Enz activity, HRV: 1%
HCoV-229E 3CL protease; Table 4: substrate 5 uM
  Enzymatic activity, Slope, HCoV-229E: 493 RFU/min
HCoV-229E 3CL protease
  % Enz activity, HCoV-229E: 26%
  cross reactivity SARS-CoV-2 versus HCoV-229E protease: greater activity towards SARS-CoV-2 than HCoV-229E protease
Saliva; [7]
  Saliva: 2309 +/− 64

## Aprotinin
[1]
  non-specific protease activity in saliva: decreased
3CL Protease [3]; buccal samples
  inhibition of 3CL specific activity: non significant inhibition
[4]
  non-specific protease activity: decreased
3CL Protease [2]
  inhibition of 3CL specific activity: non significant inhibition

## Dabcyl-AVLQSGF-{EDANS} [Substrate#3]
SARS-CoV-2 3CL Pro; [6]
  Enzyme: 354 +/− 18
Saliva; [7]
  Saliva: 47 +/− 5

## [BHQ-1]-AVLQSGFRK-[Cys(AF488)]-amide ({BHQ‑1}-AVLQSGFRKC(AF488)-NH2) [CBR #4]
SARS-CoV-2 3CL Pro; [8]
  Enzyme: 657 +/− 6
Saliva; [8]
  Saliva: 726 +/− 25

## 2,6 PDA
[1]
  non-specific protease activity in saliva: decreased
[4]
  ranking among 29 inhibitors tested: four best inhibitors
3CL Protease [2]
  inhibition of 3CL specific activity: non significant inhibition

## OCC(O)CO [glycerol]
3CL
  effect of potential enzyme mediator on enzyme activity: No positive effect

## O[C@@H](CS)[C@@H](O)CS [DTT]
3CL; various concentrations, DTT 5 mM
  effect of reducing agent on enzyme activity: most effective at preserving enzyme activity

B1: Eglin C (protein)
chain: TEFGSELKSFPEVVGKTVDQAREYFTLHYPQYDVYFLPEGSPVTLDLRYNRVRVFYNPGTNVVNHVPHVG
[1]
  non-specific protease activity in saliva: decreased
3CL Protease [3]; buccal samples
  inhibition of 3CL specific activity: non significant inhibition
[4]
  non-specific protease activity: decreased
  ranking among 29 inhibitors tested: four best inhibitors
3CL Protease [2]
  inhibition of 3CL specific activity: non significant inhibition
